Test results reported in article PMC8305076, “Comprehensive Evaluation of Biological Effects of Pentathiepins on Various Human Cancer Cell Lines and Insights into Their Mode of Action” (International Journal of Molecular Sciences, 2021).
Like-named read-outs stand apart in the source and are kept apart here.

Key:
MCF-7 = assay: crystal violet proliferation assay; type: cell-based, human; conditions: normoxia, read-out: GI50 CV mean
Description: Distinct MTT cell viability and crystal violet cell proliferation assays were performed to assess the cytotoxicity of the compounds 1–6 on 14 human cancer cell lines. In the viability assay, cells with intact mitochondria and thus active dehydrogenases are competent to convert MTT to the corresponding insoluble formazan. The formazan can be photometrically detected after solubilization and allows for indirect conclusions about the viability of the cells as an IC50 value. In the crystal violet assay, cells are stained by the binding of the dye to the chromatin, thus allowing for a quantification of biomass that remains adherent after a treatment in comparison with a control after a specific time. Potency is defined as the growth inhibitory concentration 50% (GI50).
The antiproliferative effect of the pentathiepins on human cancer cell lines was analyzed by crystal violet assay based on the protocol of a previous publication. […] After dissolving in ethanol, the optical density was measured. Here, 1000 cells (250 for LCLC-103H) in 0.1 mL of medium were seeded per well of a 96 well plate and incubated at standard conditions for 24 h prior to treatment to allow for adhesion of the cells. A serial dilution of the test compounds was prepared in medium, covering final concentrations from 10.0 to 0.04 µM and 0.1 mL of the working solution added to each well in triplicate. Additionally, samples for each cell line were seeded and directly fixed after 24 h to measure the cell density at the beginning of treatment (t0). Fixation was performed by replacing medium with 0.1 mL of a solution containing 1% glutaraldehyde in Dulbecco’s buffer (0.2 g/L KCl, 0.1 g/L MgSO4·7 H2O, 1.55 g/L Na2HPO4·7 H2O, 0.2 g/L KH2HPO4, and 8 g/L NaCl in water) for 20 min. Plates were stored in 0.1 mL of Dulbecco’s buffer until further processing. After 96 h of treatment, the same fixation process was applied to the plates containing cells and test compounds. To stain the cells, 0.1 mL of an aqueous solution of crystal violet (0.02%) was added per well for 20 min, then discarded and the plates afterwards rinsed in clear water for 30 min. The dye was extracted in 50 µL of ethanol per well during 2 h of shaking. The plates were read at λ = 570 nm using a SpectraMax 384plus (Molecular Devices, Sunnyvale, CA, USA), and the proliferation of the treatment conditions was calculated in relation to a solvent control sample after subtracting the background value of the T0-plates. The GI50 (half-maximal growth inhibitory concentration) was calculated via nonlinear regression followed by interpolation of the dose–response graphs in Prism 7 (GraphPad, San Diego, CA, USA).

[1] = test system: HAP-1, HAP-1.KO.GPx1, Siso and A2780 cells; assay: cellular morphology after 24 h; type: cell-based, human; set-up: key: no impact (0); weak impact (+); strong impact (++); conditions: summary grade
Text: All new pentathiepins induced apoptosis, although to different extents and in a cell line-dependent manner. […] In the corresponding GPx1-knockout cell line, the effect of doxorubicin was higher (about 50%), whereas only two of the pentathiepins induced apoptosis, namely, 3 and 5. The fractions of early apoptotic cells were 34 and 15%, respectively, and the population of late apoptotic cells 6% for 3. In the ovarian carcinoma cell line A2780 the overall effects were marginal, but all compounds except 6 increased the percentage of early apoptotic cells to 6–14%, with 3 resulting in the highest amount. In the Siso cell line, pentathiepin 3 increased both the number of early and late apoptotic cells to about 20%, which exceeded the effects of doxorubicine (0.5 µM). These findings were further corroborated by the observation of morphological features such as membrane blebbing and cell shrinkage as particular hallmarks of apoptosis (Figure S51).
Figure S51: Representative images of cellular morphology after an incubation for 24 h with the respective pentathiepins 1-6 (IC90) or a corresponding volume of DMF as negative control in HAP-1, HAP-1.KO.GPx1, Siso and A2780 cells. Arrows denote membrane blebbing, dashed arrows label cell shrinkage.
(1 picture or pasted object on this page, not shown here)

| SMILES | GI50 (MCF-7; Homo sapiens, MCF7, 96 h) [nM] | Morphological changes [1] | GI50 (MCF-7; 96 h) [nM] |
| --- | --- | --- | --- |
| CCOc1c2c(c3ccc(C(=O)N(CC)CC)cn13)SSSSS2 [Compound 4, 6-Ethoxy-N,N’-diethyl-[1,2,3,4,5]pentathiepino[6,7-a]indolizine-9-carboxamide] | 293 | ++ |  |
| CCOc1c2c(c3cnc4[nH]c(-c5ccc(OC)cc5)cc4n13)SSSSS2 [Compound 1, 11-Ethoxy-2-(4-methoxyphenyl)-3H-[1,2,3,4,5]pentathiepino[6′,7′:3,4]pyrrolo[1,2-a]pyrrolo[2,3-e]pyrazine] | 210 | 0 | 209 |
| CCOc1c2c(c3ccc(C(=O)N4CCCCC4)cn13)SSSSS2 [Compound 2, (6-Ethoxy-[1,2,3,4,5]pentathiepino[6,7-a]indolizin-9-yl)(piperidinyl)methanone] | 384 | + |  |
| CCOc1c2c(c3ccc(C(=O)N4CCOCC4)cn13)SSSSS2 [Compound 3, (6-Ethoxy-[1,2,3,4,5]pentathiepino[6,7-a]indolizin-9-yl)(morpholino)methanone] | 153 | ++ |  |
| CCOc1c2c(c3ccc(C(=O)N4CCN(C(=O)c5ccc(F)cc5)CC4)cn13)SSSSS2 [Compound 5, (6-Ethoxy-[1,2,3,4,5]pentathiepino[6,7-a]indolizin-9-yl)(4-(4-fluorobenzoyl)piperazinyl)methanone] | 248 | ++ |  |
| CCOc1c2c(c3ccc(C(=O)N4CCN(S(=O)(=O)c5ccc(C)cc5)CC4)cn13)SSSSS2 [Compound 6, (6-Ethoxy-[1,2,3,4,5]pentathiepino[6,7-a]indolizin-9-yl)(4-tosylpiperazinyl)methanone] | 458 | + |  |
